Reference: patent US7718385B2, “Bioactivation of alkylating agents for cancer treatment” (priority 2003, dated 2010)
Read-outs that look alike come from different tables or passages of the source.

Experiments:
recombinant rat AOR = recombinant rat AOR (Rattus norvegicus, UniProt P97584, Q160G/Q263G/Q264G/Q276G)
Description: Varied concentrations of illudin M were added to a 200 μl 0.5× phosphate buffered saline (PBS) solution containing 115 ng of AOR and 43.4 nmoles NADPH, and incubated for 1 minute at 37° C. Reactions were then extracted with ethyl acetate containing piperine (internal standard), dried under vacuum, resuspended in HPLC buffer A (60% acetonitrile: 40% water), and injected into a Hewlett-Packard 1050 HPLC system equipped with a Luna C18 column (Phenomenex Inc.). Metabolites were separated using buffer A at a flow rate of 1 ml/min and quantified using diode array detection at 205 nm and previously reported extinction coefficients (Tanaka, et al., 1990). Vmax and Km were calculated using the HYPER program.
Rates were quantified from metabolite peak areas using reported extinction coefficients (Tanaka, et al., 1990; McMorris, et al., 1999).

recombinant AOR = molecular target: T1, recombinant AOR (Rattus norvegicus, UniProt P97584, Q160G/Q263G/Q264G/Q276G); test: LC/MS/MS of enzymatic and nonenzymatic GSH adducts; format: biochemical
T1 construct: made in house
Description: High Performance Liquid Chromatography with Tandem Mass Spectrometry (LC/MS/MS) of GSA Adducts. […] These reactions were incubated at 37° C. for 1 h. Controls lacking NAFPH were performed. Reactions were stopped and deproteinized with addition of 400 μl of ice-cold acetonitrile, spun at 3500×g for 10 min at 4° C., and the supernatants were evaporated to dryness under vacuum. Residual GSH and NADPH cofactors were removed using an Oasis C18 sample prep column (Waters Chromatography). Adducts were eluted with methanol, evaporated to dryness under vacuum, resuspended in […] of 0.1% acetic acid, and detected using liquid chromatography electrospray ionization tandem mass spectrometry performed in the positive ion mode. […] A flow rate of 0.1 ml/min and gradient of 0% buffer D (70% acetic acid (0.1%):30% acetonitrile) to 100% buffer E (20% acetic acid (0.1%):80% acetonitrile) over 30 min were used to resolve the compounds. Adducts were detected by monitoring for selected molecular ions or characteristic molecular fragments after MS/MS. Molecular fragments were obtained with 35% relative collusion energy.
Measuring GSH adduction is a commonly used technique for estimating covalent protein binding, and thus cytotoxicity, of a drug (Baillie and Kassahun, 2001). The nucleophilic thiol moiety of GSH effectively scavenges electrophilic molecules and its large size and charge prevent it from entering the active site of most enzymes. […] Daughter ions of adducts, which represent the loss of water (−18 m/z) or […] (−129 m/z), were common and monitored for in these experiments following MS/MS.
Enzymatic reduction occurred in incubations containing recombinant AOR, NADPH, and GSH, while companion nonenzymatic reductions lacked NADPH. […] However the NE irofulven-GSH adduct (FIG. 5B) was detected only after monitoring for a daughter ion (M+—H2)=536 m/z) and was 42-fold less abundant than the E adduct. […] Contrary to findings with irofulven, a great deal of NE illudin M-GSH adduct was detected in NADPH-deficient incubations.

recombinant rat AOR, sequence (P97584 whole entry Q160G/Q263G/Q264G/Q276G): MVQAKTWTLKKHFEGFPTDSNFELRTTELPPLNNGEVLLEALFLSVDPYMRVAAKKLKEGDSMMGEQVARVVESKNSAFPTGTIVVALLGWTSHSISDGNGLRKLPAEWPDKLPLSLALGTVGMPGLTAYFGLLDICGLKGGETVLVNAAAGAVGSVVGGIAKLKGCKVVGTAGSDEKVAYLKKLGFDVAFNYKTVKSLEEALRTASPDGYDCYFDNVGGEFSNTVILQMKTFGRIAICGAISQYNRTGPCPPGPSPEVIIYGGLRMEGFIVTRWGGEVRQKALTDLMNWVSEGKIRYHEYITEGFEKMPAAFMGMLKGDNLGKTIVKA
T1 sequence (P97584 whole entry Q160G/Q263G/Q264G/Q276G): as above

Row | SMILES | Km (recombinant rat AOR) [µM] | maximal rate of metabolism by AOR (recombinant rat AOR) [µmol/min/mg] | Km (recombinant rat AOR; formation of Product 5) [µM] | Vmax (recombinant rat AOR; formation of Product 5) | Km (recombinant rat AOR; formation of Product 6) [µM] | Vmax (recombinant rat AOR; formation of Product 6) | effect on AOR-mediated activation of irofulven (293 cells) | effect on cell growth (293 cells; 100 μM, alone) | Km (recombinant rat AOR; formation of Product 3) [µM] | Vmax (recombinant rat AOR; formation of Product 3) | Km (recombinant rat AOR; formation of Product 4) [µM] | Vmax (recombinant rat AOR; formation of Product 4) | CC50 (293 cells; read-out: LC50 (concentration required to produce 50 percent lethality), 293 cells, 24 h, MTT assay) [nM] | NE GSH adduct detected (recombinant AOR; NADPH-deficient incubations) | abundance of E (enzymatic) GSH adduct over NE (nonenzymatic) adduct (recombinant AOR; incubations with AOR, GSH and NADPH, 1 h, 37° C.) [fold]
1 | CC1=C2C(=C[C@@](C)(CO)[C@@H]2O)C(=O)[C@](C)(O)C12CC2 [Illudin S] | 308 | 115.9 | 486 | 65,400 nmol/min/mg | 308 | 50,500 nmol/min/mg |  |  |  |  |  |  |  |  | 
2 | O=c1oc2ccccc2c(O)c1Cc1c(O)c2ccccc2oc1=O [dicumarol, Dicumarol] |  |  |  |  |  |  | attenuated partially | no effect on cell growth |  |  |  |  |  |  | 
3 | CC1=C2C(=CC(C)(C)[C@@H]2O)C(=O)[C@](C)(O)C12CC2 [Illudin M] | 109 | 44.1 |  |  |  |  |  |  | 109 | 29,200 nmol/min/mg | 113 | 14,900 nmol/min/mg | ~1000 | a great deal | 14
